Data reported in the CheMixHub ionic liquid set.

Experiment: xn = mol fraction of the nth substance listed

CCCCCCCCCCCCCC[n+]1ccccc1.O=C([O-])C(O)c1ccccc1 + NCC(=O)O + O
electrical conductivity [S/m], 101 kPa
Details | 293.15 K | 298.15 K | 303.15 K | 308.15 K | 313.15 K
x1 = 5.26e-06, x2 = 0.001799 | 0.00213 | 0.0024 | 0.00272 | 0.00305 | 0.0034
x1 = 6.85e-06, x2 = 0 | 0.00248 | 0.00278 | 0.00309 | 0.0034 | 0.0037
x1 = 8.31e-06, x2 = 0.0009002 | 0.00273 | 0.00309 | 0.00343 | 0.00385 | 0.0042
x1 = 1.142e-05, x2 = 0.001799 | 0.00389 | 0.00438 | 0.00491 | 0.0055 | 0.006
x1 = 1.319e-05, x2 = 0.0009002 | 0.00415 | 0.0047 | 0.00527 | 0.0058 | 0.0064
x1 = 1.424e-05, x2 = 0 | 0.00472 | 0.00529 | 0.00587 | 0.0065 | 0.0071
x1 = 1.685e-05, x2 = 0.001799 | 0.0054 | 0.0061 | 0.0069 | 0.0076 | 0.0084
x1 = 1.735e-05, x2 = 0.0009002 | 0.00534 | 0.00605 | 0.00678 | 0.0075 | 0.0082
x1 = 2.12e-05, x2 = 0.001799 | 0.0066 | 0.0075 | 0.0084 | 0.0093 | 0.0102
x1 = 2.126e-05, x2 = 0 | 0.00671 | 0.0076 | 0.0084 | 0.0093 | 0.0101
x1 = 2.367e-05, x2 = 0.0009002 | 0.00703 | 0.008 | 0.0089 | 0.0099 | 0.0108
x1 = 2.591e-05, x2 = 0.001799 | 0.00789 | 0.009 | 0.01 | 0.0111 | 0.0122
x1 = 2.811e-05, x2 = 0 | 0.0086 | 0.0097 | 0.0108 | 0.0122 | 0.0131
x1 = 2.982e-05, x2 = 0.0009002 | 0.0088 | 0.0098 | 0.011 | 0.0122 | 0.0134
x1 = 3.081e-05, x2 = 0.001799 | 0.0092 | 0.0104 | 0.0117 | 0.013 | 0.0143
x1 = 3.46e-05, x2 = 0 | 0.0103 | 0.0116 | 0.0129 | 0.0145 | 0.0157
x1 = 3.668e-05, x2 = 0.0009002 | 0.0104 | 0.0118 | 0.0132 | 0.0146 | 0.0161
x1 = 3.679e-05, x2 = 0.001799 | 0.0106 | 0.012 | 0.0134 | 0.015 | 0.0166
x1 = 4.108e-05, x2 = 0 | 0.0117 | 0.0131 | 0.0146 | 0.0161 | 0.0179
x1 = 4.337e-05, x2 = 0.0009001 | 0.0117 | 0.0131 | 0.0148 | 0.0165 | 0.0183
x1 = 4.367e-05, x2 = 0.001799 | 0.0119 | 0.0134 | 0.015 | 0.0168 | 0.0186
x1 = 4.811e-05, x2 = 0 | 0.0129 | 0.0144 | 0.0161 | 0.0179 | 0.0198
x1 = 4.951e-05, x2 = 0.0009001 | 0.0126 | 0.0143 | 0.0159 | 0.0178 | 0.0198
x1 = 5.11e-05, x2 = 0.001799 | 0.0131 | 0.0148 | 0.0166 | 0.0186 | 0.0206
x1 = 5.388e-05, x2 = 0 | 0.0137 | 0.0154 | 0.0172 | 0.0191 | 0.0211
x1 = 5.602e-05, x2 = 0.0009001 | 0.0135 | 0.0153 | 0.0171 | 0.0191 | 0.0212
x1 = 5.726e-05, x2 = 0.001799 | 0.014 | 0.0158 | 0.0176 | 0.0198 | 0.0219
x1 = 5.982e-05, x2 = 0 | 0.0145 | 0.0163 | 0.0182 | 0.0202 | 0.0224
x1 = 6.216e-05, x2 = 0.0009001 | 0.0144 | 0.0162 | 0.0181 | 0.0202 | 0.0224
x1 = 6.361e-05, x2 = 0.001799 | 0.0149 | 0.0167 | 0.0187 | 0.0209 | 0.0232
x1 = 6.559e-05, x2 = 0 | 0.0153 | 0.0172 | 0.0192 | 0.0213 | 0.0236
x1 = 6.885e-05, x2 = 0.0009001 | 0.0154 | 0.0172 | 0.0192 | 0.0214 | 0.0239
x1 = 6.959e-05, x2 = 0.001799 | 0.0156 | 0.0176 | 0.0197 | 0.0221 | 0.0245
x1 = 7.081e-05, x2 = 0 | 0.016 | 0.018 | 0.02 | 0.0223 | 0.0246
x1 = 7.463e-05, x2 = 0.0009001 | 0.0161 | 0.0181 | 0.0202 | 0.0225 | 0.0251
x1 = 7.593e-05, x2 = 0.001799 | 0.0165 | 0.0185 | 0.0207 | 0.0233 | 0.0258
x1 = 7.604e-05, x2 = 0 | 0.0167 | 0.0187 | 0.0209 | 0.0232 | 0.0258
x1 = 8.023e-05, x2 = 0.0009001 | 0.0168 | 0.0189 | 0.0211 | 0.0237 | 0.0263
x1 = 8.072e-05, x2 = 0 | 0.0173 | 0.0194 | 0.0217 | 0.0241 | 0.0266

CCO + CCCC[n+]1ccn(C)c1.[Cl-]
Details | viscosity [mPa·s]
303.15 K, 101 kPa, x1 = 1 | 0.99

CCCCn1cc[n+](C)c1.O=S(=O)([N-]S(=O)(=O)C(F)(F)F)c1ccc[cH-]1.[Fe+2].c1cc[cH-]c1 + CCCC[n+]1ccn(C)c1.O=S(=O)([N-]S(=O)(=O)C(F)(F)F)C(F)(F)F
Details | viscosity [mPa·s]
298.15 K, 100 kPa, x2 = 0.749 | 184.5
